# Data taken from US10829520B2, “Beta-hairpin peptidomimetics” (POLYPHOR AG, priority 2015, dated 2020).
# Where a SMILES comes first, the peptide text is derived from it. Bridges are numbered along the chain shown (N, C = ends). Roman numbers before positions name the chains, in order. [ ]: non-standard residue; d: D form. Tle = CC(C)(C)[C@H](N)C(=O)O; dDab = NCC[C@@H](N)C(=O)O; Nle = CCCC[C@H](N)C(=O)O; Dab = NCC[C@H](N)C(=O)O; dAze = O=C(O)[C@H]1CCN1; Dap = NC[C@H](N)C(=O)O
# Tests used:
# Assay type in all cases: cell-based
# [1] = tested on: Klebsiella pneumoniae 968733; conditions: 968733
# [2] = tested on: Acinetobacter baumannii DSM 30008; conditions: DSM 30008
# How it was run: (§1)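 Read-out is the minimal inhibitory concentration in μg/mL, taken as the lowest peptide level without visible growth after 18-20 h at 35° C. Testing followed CLSI broth microdilution in cation-adjusted Mueller-Hinton II broth plus 0.002% Polysorbate 80, with roughly 10^6 CFU/mL.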
# [3] = tested on: Escherichia coli ATCC 25922; conditions: ATCC 25922
# How it was run: as §1
# Escherichia coli 926415 = conditions: 926415
# [4] = tested on: Klebsiella pneumoniae SSI #3010; conditions: SSI #3010
# How it was run: as §1
# [5] = tested on: Acinetobacter baumannii 872842; conditions: 872842
# [6] = tested on: Pseudomonas aeruginosa ATCC 27853; conditions: ATCC 27853
# How it was run: as §1
# [7] = tested on: human red blood cells (hRBC); experiment: Hemolysis of human red blood cells; conditions: red cells of human, 1 h, 100
# How it was run: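 Hemolysis was read as supernatant absorbance at 540 nm and expressed as a percentage of Triton X-100 (2.5%) lysis. Washed human red cells (20% v/v) had been exposed to each peptide at 100 μg/mL for 1 h at 37° C.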
Compound,Klebsiella pneumoniae 968733 MIC [1] [µg/mL],Acinetobacter baumannii DSM 30008 MIC [2] [µg/mL],Escherichia coli ATCC 25922 MIC [3] [µg/mL],Escherichia coli 926415 MIC (Escherichia coli 926415) [µg/mL],Klebsiella pneumoniae SSI #3010 MIC [4] [µg/mL],Acinetobacter baumannii 872842 MIC [5] [µg/mL],Pseudomonas aeruginosa ATCC 27853 MIC [6] [µg/mL],Hemolysis at 100 μg/mL [7] [%]
CC(C)C[C@@H]1NC(=O)[C@@H](CC(C)C)NC(=O)[C@H](CCN)NC(=O)[C@@H](NC(=O)[C@H](CCN)NC(=O)[C@@H](NC(=O)[C@H](CCN)NC(=O)CC[C@@H]2NC(=O)[C@H](CCN)NC(=O)[C@H](Cc3ccc(O)cc3)NC(=O)[C@H]([C@@H](C)O)NC(=O)[C@H](C(C)C)NC(=O)[C@@H]3CCCN3C(=O)[C@H]3CCN3C(=O)[C@H](CO)NC(=O)[C@H](C)NC(=O)[C@H](C(C)(C)C)NC(=O)[C@H](CCN)NC(=O)[C@H](Cc3c[nH]c4ccccc34)NC(=O)[C@H](CCN)NC(=O)[C@@H](CCN)NC2=O)[C@@H](C)O)CCNC(=O)[C@H]([C@@H](C)O)NC(=O)[C@H](CCN)NC(=O)[C@H](CCN)NC1=O [Ex. 82] (I: cyclo(AS[dAze]PVTY[Dab]E[dDab][Dab]W[Dab][Tle]) / II: [Dab]T[Dab][Dab][Dab][dL]L[Dab][Dab]T; amide I:9-II:N; lactam II:4-II:C),0.5,1,0.5,0.5,0.5,0.5,0.5,<1
CCCC[C@@H]1NC(=O)[C@@H]2CCCN2C(=O)[C@H]2CCCN2C(=O)[C@H](CO)NC(=O)[C@H](CO)NC(=O)[C@H](C(C)(C)C)NC(=O)[C@H](CCN)NC(=O)[C@H](Cc2c[nH]c3ccccc23)NC(=O)[C@H](CCN)NC(=O)[C@@H](CCN)NC(=O)[C@H](CCC(=O)N[C@@H](CCN)C(=O)N[C@H](C(=O)N[C@@H](CCN)C(=O)N[C@H]2CCNC(=O)[C@H]([C@@H](C)O)NC(=O)[C@H](CCN)NC(=O)[C@H](CCN)NC(=O)[C@H](CC(C)C)NC(=O)[C@@H](CC(C)C)NC(=O)[C@H](CCN)NC2=O)[C@@H](C)O)NC(=O)[C@H](CCN)NC(=O)[C@H](Cc2ccc(O)cc2)NC(=O)[C@H](CN)NC1=O [Ex. 83] (I: cyclo([Nle][Dap]Y[Dab]E[dDab][Dab]W[Dab][Tle]SS[dP]P) / II: [Dab]T[Dab][Dab][Dab][dL]L[Dab][Dab]T; amide I:5-II:N; lactam II:4-II:C),4,1,2,1,2,1,1,1
CCCC[C@@H]1NC(=O)[C@@H]2CCCN2C(=O)[C@H]2CCCN2C(=O)[C@H](CO)NC(=O)[C@H](CN)NC(=O)[C@H](C(C)(C)C)NC(=O)[C@H](CCN)NC(=O)[C@H](Cc2c[nH]c3ccccc23)NC(=O)[C@H](CCN)NC(=O)[C@@H](CCN)NC(=O)[C@H](CCC(=O)N[C@@H](CCN)C(=O)N[C@H](C(=O)N[C@@H](CCN)C(=O)N[C@H]2CCNC(=O)[C@H]([C@@H](C)O)NC(=O)[C@H](CCN)NC(=O)[C@H](CCN)NC(=O)[C@H](CC(C)C)NC(=O)[C@@H](CC(C)C)NC(=O)[C@H](CCN)NC2=O)[C@@H](C)O)NC(=O)[C@H](CCN)NC(=O)[C@H](Cc2ccc(O)cc2)NC(=O)[C@H](CO)NC1=O [Ex. 84] (I: cyclo([Nle]SY[Dab]E[dDab][Dab]W[Dab][Tle][Dap]S[dP]P) / II: [Dab]T[Dab][Dab][Dab][dL]L[Dab][Dab]T; amide I:5-II:N; lactam II:4-II:C),2,1,1,1,2,2,2,1
